Measurements taken from US20250002475A1 (EPICS THERAPEUTICS, priority 2023, published 2025).

target: T1, recombinant METTL3/METTL14 complex (Homo sapiens, UniProt Q86U44); experiment: METTL3/14 Scintillation Proximity Assay (SPA), RNA methyltransferase activity; assay type: biochemical; conditions: 5.31 nM METTL3/14 complex, 250 nM RNA substrate, 1 μM 3H-SAM, 90 min; for compounds marked * best of the two separated forms
T1 construct: purchased Active Motif 311970; host or cells: Sf9 cells
T1 sequence (Q86U44 whole entry): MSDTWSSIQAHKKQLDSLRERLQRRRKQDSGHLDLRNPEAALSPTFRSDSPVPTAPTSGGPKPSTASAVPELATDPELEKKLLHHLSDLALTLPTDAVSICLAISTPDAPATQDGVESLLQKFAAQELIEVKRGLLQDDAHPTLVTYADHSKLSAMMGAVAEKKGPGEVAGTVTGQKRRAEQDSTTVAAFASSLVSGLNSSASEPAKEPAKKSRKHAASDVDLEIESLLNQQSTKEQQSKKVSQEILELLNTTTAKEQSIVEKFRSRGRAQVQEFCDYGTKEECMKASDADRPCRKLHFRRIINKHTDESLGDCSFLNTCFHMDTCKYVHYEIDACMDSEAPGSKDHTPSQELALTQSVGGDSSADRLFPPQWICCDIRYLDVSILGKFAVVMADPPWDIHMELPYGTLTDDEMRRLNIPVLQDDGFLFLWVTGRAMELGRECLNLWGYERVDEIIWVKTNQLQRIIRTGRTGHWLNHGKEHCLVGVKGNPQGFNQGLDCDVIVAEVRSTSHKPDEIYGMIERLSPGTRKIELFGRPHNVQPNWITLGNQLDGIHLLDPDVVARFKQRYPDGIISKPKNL
T1 sequence (Q9HCE5 whole entry partner): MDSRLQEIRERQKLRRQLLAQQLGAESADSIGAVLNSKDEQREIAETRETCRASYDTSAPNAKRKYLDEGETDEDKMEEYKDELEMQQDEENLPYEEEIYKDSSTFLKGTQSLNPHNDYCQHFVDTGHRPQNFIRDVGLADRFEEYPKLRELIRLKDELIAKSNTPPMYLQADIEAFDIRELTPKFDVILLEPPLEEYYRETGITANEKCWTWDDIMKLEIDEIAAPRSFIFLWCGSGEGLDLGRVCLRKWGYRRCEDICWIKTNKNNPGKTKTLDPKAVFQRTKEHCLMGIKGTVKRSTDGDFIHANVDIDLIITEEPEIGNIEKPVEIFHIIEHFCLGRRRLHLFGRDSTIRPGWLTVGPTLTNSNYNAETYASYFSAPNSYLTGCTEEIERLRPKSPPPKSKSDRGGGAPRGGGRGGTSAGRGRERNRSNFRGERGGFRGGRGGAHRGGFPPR

Structure (SMILES)	IC50 [nM]
COc1cc(-c2cn(Cc3n[nH]c(N4CCC[C@@H](NCC5CCC5)C4)cc3=O)nn2)c2cn[nH]c2c1 [Compound 039, (R)-6-(3-((cyclobutylmethyl)amino)piperidin-1-yl)-3-((4-(6-methoxy-1H-indazol-4-yl)-1H-1,2,3-triazol-1-yl)methyl)pyridazin-4(1H)-one]	≤ 50
COc1cnc(C)c(-c2cn(C(C)n3ccc(N4CCC[C@@H](NCC5CCC5)C4)cc3=O)nn2)c1 (stereo partly drawn) [Compound 114, 4-((R)-3-((cyclobutylmethyl)amino)piperidin-1-yl)-1-(1-(4-(5-methoxy-2-methylpyridin-3-yl)-1H-1,2,3-triazol-1-yl)ethyl)pyridin-2(1H)-one]	≤ 50
COc1cncc(-c2cn(C3(c4ccc(N5CCC[C@@H](NCC6CCC6)C5)nn4)CC3)nn2)c1 [Compound 115, (R)-N-(cyclobutylmethyl)-1-(6-(1-(4-(5-methoxypyridin-3-yl)-1H-1,2,3-triazol-1-yl)cyclopropyl)pyridazin-3-yl)piperidin-3-amine]	≤ 50
COc1cncc(-c2nnc(C(C)n3ccc(N4CCC[C@@H](NCC5CCC5)C4)cc3=O)s2)c1 (stereo partly drawn) [Compound 119, 4-((R)-3-((cyclobutylmethyl)amino)piperidin-1-yl)-1-(1-(5-(5-methoxypyridin-3-yl)-1,3,4-thiadiazol-2-yl)ethyl)pyridin-2(1H)-one]	≤ 50
CNc1cncc(-c2cn(C(C)n3ccc(N4CCC[C@@H](NCC5CCC5)C4)cc3=O)nn2)n1 (stereo partly drawn) [Compound 121, 4-((R)-3-((cyclobutylmethyl)amino)piperidin-1-yl)-1-(1-(4-(6-(methylamino)pyrazin-2-yl)-1H-1,2,3-triazol-1-yl)ethyl)pyridin-2(1H)-one]	≤ 50
COc1cncc(-c2noc(C(C)n3ccc(N4CCC[C@@H](NCC5CCC5)C4)cc3=O)n2)c1 (stereo partly drawn) [Compound 125, 4-((R)-3-((cyclobutylmethyl)amino)piperidin-1-yl)-1-(1-(3-(5-methoxypyridin-3-yl)-1,2,4-oxadiazol-5-yl)ethyl)pyridin-2(1H)-one]	50 to 500
O=c1cc(-c2cn(Cc3ccc(N4CCC[C@@H](NCC5CCC5)C4)cn3)nn2)nc2ccccn12 [Compound 127, (R)-2-(1-((5-(3-((cyclobutylmethyl)amino)piperidin-1-yl)pyridin-2-yl)methyl)-1H-1,2,3-triazol-4-yl)-4H-pyrido[1,2-a]pyrimidin-4-one]	≤ 50
O=c1cc(-c2cn(Cc3ccc(N4CCC[C@@H](NCC5CCC5)C4)cc3)nn2)nc2ccccn12 [Compound 128, (R)-2-(1-(4-(3-((cyclobutylmethyl)amino)piperidin-1-yl)benzyl)-1H-1,2,3-triazol-4-yl)-4H-pyrido[1,2-a]pyrimidin-4-one]	≤ 50
CC(n1cc(-c2cncc(OC(F)F)c2)nn1)n1ccc(N2CCC[C@@H](NCC3CCC3)C2)cc1=O (some centres unmarked) [Compound 131]	≤ 50
COc1cnnc(-c2cn(Cc3ccc(N4CCC[C@@H](NCC5CCC5)C4)cc3)nn2)c1 [Compound 136, (R)-N-(cyclobutylmethyl)-1-(4-((4-(5-methoxypyridazin-3-yl)-1H-1,2,3-triazol-1-yl)methyl)phenyl)piperidin-3-amine]	≤ 50
COc1cncc(-c2nnn(Cc3ccc(N4CCC[C@@H](NCC5CCC5)C4)cc3)n2)c1 [Compound 145, (R)-N-(cyclobutylmethyl)-1-(4-((5-(5-methoxypyridin-3-yl)-2H-tetrazol-2-yl)methyl)phenyl)piperidin-3-amine]	50 to 500
CC(n1cc(-c2cncc3[nH]ncc23)nn1)n1ccc(N2CCC[C@@H](NCC3CCC3)C2)cc1=O (some centres unmarked) [Compound 147]	≤ 50
C=C(c1ccc(N2CCC[C@@H](NCC3CCC3)C2)cc1)n1cc(-c2cncc(N(C)C)c2)nn1 [Compound 155, (R)-5-(1-(1-(4-(3-((cyclobutylmethyl)amino)piperidin-1-yl)phenyl)vinyl)-1H-1,2,3-triazol-4-yl)-N,N-dimethylpyridin-3-amine]	≤ 50
Cc1cc(N2CCC[C@@H](NCC3CC3)C2)cc(=O)n1Cn1cc(-c2cncc(N(C)C)c2)nn1 [Compound 163]	≤ 50
COc1cncc(-c2cn(C(C)c3ccc(N4CCC[C@@H](NCC5CC5)C4)cn3)nn2)n1 (stereo partly drawn) [Compound 261, (3R)—N-(cyclopropylmethyl)-1-(6-(1-(4-(6-methoxypyrazin-2-yl)-1H-1,2,3-triazol-1-yl)ethyl)pyridin-3-yl)piperidin-3-amine]	≤ 50
CC(C(=O)Nc1cc(=O)n2ccccc2n1)c1ccc(N2CCC[C@@H](NCC3CCC3)C2)cn1 (stereo partly drawn) [Compound 265, 2-(5-((R)-3-((cyclobutylmethyl)amino)piperidin-1-yl)pyridin-2-yl)-N-(4-oxo-4H-pyrido[1,2-a]pyrimidin-2-yl)propanamide]	≤ 50
CC(C(=O)Nc1cc(=O)n2ccccc2n1)c1ccc(N2CCC[C@@H](NCC3CCC3)C2)nn1 (stereo partly drawn) [Compound 275, 2-(6-((R)-3-((cyclobutylmethyl)amino)piperidin-1-yl)pyridazin-3-yl)-N-(4-oxo-4H-pyrido[1,2-a]pyrimidin-2-yl)propanamide]	50 to 500
O=C(Nc1cc2ccccc2c(=O)[nH]1)C1(c2ccc(N3CCC[C@@H](NCC4CCC4)C3)cn2)COC1 [Compound 302, (R)-3-(5-(3-((cyclobutylmethyl)amino)piperidin-1-yl)pyridin-2-yl)-N-(1-oxo-1,2-dihydroisoquinolin-3-yl)oxetane-3-carboxamide]	≤ 50

Further lines, results first:

IC50 [nM]	Structure (SMILES)
≤ 50	COc1cnnc(-c2cn(Cc3ccc(N4CCC[C@@H](NCC5CCC5)C4)cn3)nn2)c1 [Compound 118, (R)-N-(cyclobutylmethyl)-1-(6-((4-(5-methoxypyridazin-3-yl)-1H-1,2,3-triazol-1-yl)methyl)pyridin-3-yl)piperidin-3-amine]
50 to 500	COc1cncc(NC(=O)C(C)c2ccc(N3CCC[C@@H](NCC4CCC4)C3)nn2)c1 (stereo partly drawn) [Compound 141, 2-(6-((R)-3-((cyclobutylmethyl)amino)piperidin-1-yl)pyridazin-3-yl)-N-(5-methoxypyridin-3-yl)propanamide]
50 to 500	CC(C(=O)Nc1cncc(N(C)C)c1)c1ccc(N2CCC[C@@H](NCC3CCC3)C2)nn1 (stereo partly drawn) [Compound 157, 2-(6-((R)-3-((cyclobutylmethyl)amino)piperidin-1-yl)pyridazin-3-yl)-N-(5-(dimethylamino)pyridin-3-yl)propanamide]
≤ 50	CC(C(=O)Nc1cncc(N2CCCC2)c1)c1ccc(N2CCC[C@@H](NCC3CC3)C2)nn1 (stereo partly drawn) [Compound 251, 2-(6-((R)-3-((cyclopropylmethyl)amino)piperidin-1-Yl)pyridazin-3-yl)-N-(5-(pyrrolidin-1-yl)pyridin-3-yl)propanamide]
≤ 50	O=C(Cc1ccc(N2CCC[C@@H](NCC3CCC3)C2)cn1)Nc1cncc(N2CCCC2)c1 [Compound 271, (R)-2-(5-(3-((cyclobutylmethyl)amino)piperidin-1-yl)pyridin-2-yl)-N-(5-(pyrrolidin-1-yl)pyridin-3-yl)acetamide]
≤ 50	COc1cc(NC(=O)C2(c3ccc(N4CCC[C@@H](NCC5CCC5)C4)cn3)COC2)c2cn[nH]c2c1 [Compound 273, (R)-3-(5-(3-((cyclobutylmethyl)amino)piperidin-1-yl)pyridin-2-yl)-N-(6-methoxy-1H-indazol-4-yl)oxetane-3-carboxamide]
≤ 50	CC(C(=O)Nc1cncc(N2CCCC2)n1)c1ccc(N2CCC[C@@H](NCC3CCC3)C2)cn1 (stereo partly drawn) [Compound 274, 2-(5-((R)-3-((cyclobutylmethyl)amino)piperidin-1-yl)pyridin-2-yl)-N-(6-(pyrrolidin-1-yl)pyrazin-2-yl)propanamide]
≤ 50	O=C(Cc1ccc(N2CCC[C@@H](NCC3CCC3)C2)cn1)Nc1cncc(N2CCCC2)n1 [Compound 277, (R)-2-(5-(3-((cyclobutylmethyl)amino)piperidin-1-yl)pyridin-2-yl)-N-(6-(pyrrolidin-1-yl)pyrazin-2-yl)acetamide]
50 to 500	O=C(Nc1cnc2[nH]ccc2c1)C1(c2ccc(N3CCC[C@@H](NCC4CCC4)C3)cn2)COC1 [Compound 299, (R)-3-(5-(3-((cyclobutylmethyl)amino)piperidin-1-yl)pyridin-2-yl)-N-(1H-pyrrolo[2,3-b]pyridin-5-yl)oxetane-3-carboxamide]
≤ 50	Cn1c(N2CCCC2)cc(-c2cn(C3(c4ccc(N5CCC[C@@H](NCC6CC6)C5)cn4)COC3)nn2)cc1=O [Compound 314, (R)-4-(1-(3-(5-(3-((cyclopropylmethyl)amino)piperidin-1-yl)pyridin-2-yl)oxetan-3-yl)-1H-1,2,3-triazol-4-yl)-1-methyl-6-(pyrrolidin-1-yl)pyridin-2(1H)-one]

test system: Kasumi-1 cells; experiment: Kasumi-1 cellular viability assay (ATP-Lite, 72 h); assay type: cell-based; conditions: Homo sapiens, ATP-Lite luminescence, % viability relative to DMSO
Description: Kasumi-1 cell line was purchased from ATCC (ATCC® CRL2724™). Cells were isolated from the peripheral blood of a child with acute myeloid leukemia (AML FAB M2) (in 2nd relapse after bone marrow transplantation) in 1989. Most cells are round. Kasumi-1 cells are observed to grow individually or in small clumps in suspension.
Kasumi-1 cells are cultured in RPMI-1640 (Gibco A10491-01) containing 10% heat-inactivated and 0.22 μm filtered FBS (Gibco 10270-106) at a density of 3E+5 and 3E+6 viable cell/mL following the certificate of analysis.
Cellular viability assay: Kasumi-1 cells were plated (50 μL) in 96-well cell culture microplates (PS, F-Bottom black, Cellstar, Greiner 655086) at final concentration of 15000 cells/well. The compounds of the invention were dissolved in DMSO, and a titration curve was generated at 1000× final concentration. Compounds were then diluted 500× in tissue culture medium (RPMI-1640, 10% FBS). Then 50 μl of test compound were added to Kasumi-1 cells in a final DMSO concentration of 0.1%, final volume 100 μl. A gas permeable sealing membrane was applied to the plate to prevent evaporation (Breathe-Easy sealing membrane, Sigma Z380059-1PK) and cells were incubated for 72 h at 37° C., 5% CO2, 80% RH. After 72h of treatment, the plates were taken out of the incubator and left for a few minutes at room temperature. 100 μl of the reconstituted reagent ATP-Lite One Step (Perkin Elmer, 6016739) was added to each well. The plates were shaken for 2 min at 700 rpm and placed in the dark for 10 minutes at room temperature before measurement of luminescence intensity with Envision instrument. The raw data were expressed in RLU. Results were expressed in % of viability relative to DMSO control and an IC50 was calculated based on the concentration-response profile of individual compounds.

Structure (SMILES)	IC50 [nM]
COc1cc(-c2cn(Cc3n[nH]c(N4CCC[C@@H](NCC5CCC5)C4)cc3=O)nn2)c2cn[nH]c2c1 [Compound 039, (R)-6-(3-((cyclobutylmethyl)amino)piperidin-1-yl)-3-((4-(6-methoxy-1H-indazol-4-yl)-1H-1,2,3-triazol-1-yl)methyl)pyridazin-4(1H)-one]	> 5000
